Measured values taken from article PMC12043106, “Insight into antistaphylococcal effect of chlorinated 1-hydroxynaphthalene-2-carboxanilides” (ADMET & DMPK, 2025).
≈ marks a conversion by molar mass, not a printed value. Where “and” joins values, the source holds several entries; their conditions need not be identical. Identical values can stand only once.

Tests used:
[1] = Lipophilicity determination by HPLC (capacity factor k, distribution coefficients DpH); format: physicochemical; conditions: for log k: MeOH 72 % / H2O 28 %, C18; for log D6.5: MeOH 72 % / acetate-buffered saline pH 6.5 28 %; for log D7.4: MeOH 72 % / acetate-buffered saline pH 7.4 28 %
Description: An HPLC system Agilent 1200 equipped with a DAD detector (Agilent, Santa Clara, CA, USA) was used. A chromatographic column Symmetry® C18 5 μm, 4.6×250 mm, part No. WAT054275 (Waters Corp., Milford, MA, USA) was used. The HPLC separation process was monitored and evaluated with EZChrom Elite software ver. 3.3.2 [53] (Agilent). Isocratic elution by a mixture of MeOH p.a. (72 %) and H2O-HPLC Mili-Q grade (28 %) as a mobile phase was used for the determination of capacity factor k. Isocratic elution by a mixture of MeOH p.a. (72 %) and acetate-buffered saline (pH 7.4 and pH 6.5) (28 %) as a mobile phase was used for the determination of distribution coefficients expressed as D7.4 and D6.5. The total flow of the column was 1.0 mL/min, the injection volume was 20 μL, the column temperature was 40 °C, and the sample temperature was 10 °C. The detection wavelength of 210 nm was chosen. A KI methanolic solution was used for the determination of the dead times (tD). Retention times (tR) were measured in minutes. The capacity factors k were calculated according to the formula k = (tR−tD)/tD, where tR is the retention time of the solute, and tD is the dead time obtained using an unretained analyte. The distribution coefficients DpH were calculated according to the formula DpH = (tR−tD)/tD. Each experiment was repeated three times.

S. aureus ATCC 29213 [2] = assay: Antistaphylococcal screening, microtitration broth MIC; format: cell-based, Staphylococcus aureus; conditions: for MIC: Staphylococcus aureus, ATCC29213, S. aureus ATCC 29213, 24 h, 37 °C; for Antistaphylococcal activity in words: susceptible strain and resistant isolates
Protocol: (§1) In vitro antistaphylococcal activity of the synthesized compounds was evaluated against three clinical isolates of methicillin-resistant S. aureus: clinical isolate of animal origin, MRSA 63718 (Department of Infectious Diseases and Microbiology, Faculty of Veterinary Medicine, University of Veterinary Sciences Brno, Czech Republic), carrying the mecA gene; and MRSA SA 630 and MRSA SA 3202 [54] (National Institute of Public Health, Prague, Czech Republic), both of human origin. […] All isolates were tested for the presence of the mecA gene encoding methicillin resistance. […] Vancomycin-susceptible methicillin-susceptible S. aureus (VS-MSSA) ATCC 29213, obtained from the American Type Culture Collection, was used as the reference and quality control strain. The minimum inhibitory concentrations (MICs) were evaluated by the microtitration broth method according to the CLSI [58, 59] with some modifications. The compounds were dissolved in DMSO (Sigma, St. Louis, MO, USA) to get a concentration […] and diluted in a microtitration plate in a medium Cation Adjusted Mueller-Hinton (CaMH, Oxoid, Basingstoke, UK) to reach the final concentration of 256-0.0625 μg/mL. The plate was inoculated by the tested microorganisms. The final concentration of bacterial cells was 10^5 for bacteria. […] A drug-free control and a sterility control were included. The plates were incubated for 24 h at 37 °C. […] The experiments were repeated three times.

MRSA SA 630 = assay: as above; format: cell-based, methicillin-resistant S. aureus; conditions: Staphylococcus aureus; MRSA SA 630, 24 h, 37 °C
Protocol: as §1

MRSA SA 3202 = assay: as above; format: cell-based, methicillin-resistant S. aureus; conditions: Staphylococcus aureus; MRSA SA 3202, 24 h, 37 °C
Protocol: as §1

MRSA 63718 = assay: as above; format: cell-based, methicillin-resistant S. aureus; conditions: Staphylococcus aureus; MRSA 63718, 24 h, 37 °C
Protocol: as §1

S. aureus ATCC 29213 [3] = assay: MTT assay (bacterial viability / respiratory activity); format: cell-based, Staphylococcus aureus; conditions: S. aureus ATCC 29213, MTT; for S. aureus viability inhibition: at the lowest multiple of MIC with at least 70 % inhibition
Protocol: Compounds were prepared as previously stated and diluted in CaMH broth for S. aureus to achieve the desired final concentrations. S. aureus bacterial suspension in sterile distilled water at 0.5 McFarland was diluted 1:3. Inocula were added to each well by multi-inoculator. Diluted […] in broth free from inhibiting compounds were used as the growth control. All compounds were prepared in duplicate. Plates were incubated at 37 °C for 24 h for S. aureus. After the incubation period, 10 % well volume of MTT (3-(4,5-dimethylthiazol-2-yl)-2,5-diphenyltetrazolium bromide) reagent (Sigma) was mixed into each well and incubated at 37 °C for 1 h for S. aureus. Then 100 μL of 17 % sodium dodecyl sulphate in 40 % dimethylformamide was added to each well. The plates were read at 570 nm. The absorbance readings from the cells grown in the presence of the tested compounds were compared with uninhibited cell growth to determine the relative percent inhibition. The percent inhibition was determined through the MTT assay. The percent viability is calculated through the comparison of a measured value and that of the uninhibited control: Viability = (OD570E/OD570P)×100, where OD570E is the reading from the compound-exposed cells, while OD570P is the reading from the uninhibited cells (positive control). Cytotoxic potential is determined by a percent viability of <70 % [60, 61].
The MTT assay can be used to assess cell growth by measuring respiration.

in vitro = assay: in vitro
Protocol: Cytotoxicity of the compounds was determined using an LDH assay kit (Roche, Mannheim, Germany) as described previously. Human monocytic leukemia THP-1 cells (European Collection of Cell Cultures, Salisbury, UK) were exposed for 24 h at 37 °C to various compound concentrations ranging from 0.37 to 30 μM in RPMI 1640 medium. For LDH assays, cells were seeded into 96-well plates (5×10^4 cells/well in 100 μL of culture medium) in triplicate in serum-free RPMI 1640 medium and measurements were taken 24 h after the treatment with the compounds. The maximum concentration of DMSO (Sigma) in the assays never exceeded 0.1 %. […] The median lethal dose values, LC50, were deduced through the production of a dose-response curve. All data from three independent experiments were evaluated using GraphPad Prism 5.00 software.

[4] = system: Human monocytic leukemia THP-1 cells; set-up: method as in PMID 24075143; conditions: tested up to 20 μM, ref [29], read-out: LC50 THP-1; cited from earlier work

SMILES	log k [1]	log D6.5 [1]	log D7.4 [1]	MIC (S. aureus ATCC 29213 [2])	Antistaphylococcal activity in words (S. aureus ATCC 29213 [2])	MIC (MRSA SA 630)	MIC (MRSA SA 3202)	MIC (MRSA 63718)	Concentration: lowest multiple of MIC with at least 70 % inhibition of viability (S. aureus ATCC 29213 [3])	S. aureus viability inhibition (S. aureus ATCC 29213 [3])	CC50 at 24 h (in vitro)	CC50 [4]
O=C(Nc1cc(Cl)cc(Cl)c1)c1ccc2ccccc2c1O [Compound 10, N-(3,5-dichlorophenyl)-1-hydroxynaphthalene-2-carboxamide]	0.9704	0.9531	0.9306	0.37 µM (≈ 0.123 µg/mL)	significant antistaphylococcal activity	0.37 µM (≈ 0.123 µg/mL)	0.37 µM (≈ 0.123 µg/mL)	0.37 µM (≈ 0.123 µg/mL)	16 × MIC	96% and 96.5%	> 30 µM	–
O=C(Nc1cccc(Cl)c1Cl)c1ccc2ccccc2c1O [Compound 5]	0.6838	0.4371	0.3870	770 µM (≈ 256 µg/mL)	–	770 µM (≈ 256 µg/mL)	770 µM (≈ 256 µg/mL)	770 µM (≈ 256 µg/mL)	–	–	–	–
O=C(Nc1c(Cl)cc(Cl)cc1Cl)c1ccc2ccccc2c1O [Compound 12]	0.8398	0.7254	0.6825	698 µM (≈ 256 µg/mL)	–	698 µM (≈ 256 µg/mL)	698 µM (≈ 256 µg/mL)	698 µM (≈ 256 µg/mL)	–	–	–	–
O=C(Nc1ccccc1Cl)c1ccc2ccccc2c1O [Compound 2]	0.6900	0.5828	0.5836	> 859 µM	–	> 859 µM	> 859 µM	> 859 µM	–	–	–	–
O=C(Nc1ccc(Cl)cc1Cl)c1ccc2ccccc2c1O [Compound 6]	0.7387	0.5168	0.4680	770 µM (≈ 256 µg/mL)	–	770 µM (≈ 256 µg/mL)	770 µM (≈ 256 µg/mL)	770 µM (≈ 256 µg/mL)	–	–	–	–
CC1(C)S[C@@H]2[C@H](NC(=O)[C@H](N)c3ccccc3)C(=O)N2[C@H]1C(=O)O [APC, ampicillin, reference compound]	–	–	–	5.72 µM (≈ 2 µg/mL)	–	45.8 µM (≈ 16 µg/mL)	45.8 µM (≈ 16 µg/mL)	45.8 µM (≈ 16 µg/mL)	8× MIC	90.0%	0.8 ± 0.1 µM	–
O=C(Nc1cccc(Cl)c1)c1ccc2ccccc2c1O [Compound 3]	0.8556	0.7362	0.7227	> 859 µM	–	429 µM (≈ 128 µg/mL)	107 µM (≈ 31.9 µg/mL)	> 859 µM	–	–	–	> 20 µM
O=C(Nc1cc(Cl)ccc1Cl)c1ccc2ccccc2c1O [Compound 7]	0.6717	0.3949	0.3938	770 µM (≈ 256 µg/mL)	–	770 µM (≈ 256 µg/mL)	770 µM (≈ 256 µg/mL)	770 µM (≈ 256 µg/mL)	–	–	–	–
CC[C@@]1(O)C(=O)OCc2c1cc1n(c2=O)Cc2cc3ccccc3nc2-1 [CMP, camptothecin, reference compound]	–	–	–	–	–	–	–	–	–	–	0.16 ± 0.07 µM	–
O=C(Nc1ccccc1)c1ccc2ccccc2c1O [Compound 1]	0.6084	0.5139	0.5487	> 972 µM	–	243 µM (≈ 64 µg/mL)	121 µM (≈ 31.9 µg/mL)	> 972 µM	–	–	–	> 20 µM
O=C(Nc1c(Cl)cccc1Cl)c1ccc2ccccc2c1O [Compound 8, N-(2,6-dichlorophenyl)-1-hydroxynaphthalene-2-carboxamide]	0.5729	0.4516	0.4594	48.2 µM (≈ 16 µg/mL)	Partial activity	48.2 µM (≈ 16 µg/mL)	48.2 µM (≈ 16 µg/mL)	48.2 µM (≈ 16 µg/mL)	–	–	> 30 µM	–
O=C(Nc1cc(Cl)c(Cl)cc1Cl)c1ccc2ccccc2c1O [Compound 11]	0.6894	0.5314	0.4864	698 µM (≈ 256 µg/mL)	–	698 µM (≈ 256 µg/mL)	698 µM (≈ 256 µg/mL)	698 µM (≈ 256 µg/mL)	–	–	–	–
O=C(Nc1cc(Cl)c(Cl)c(Cl)c1)c1ccc2ccccc2c1O [Compound 13, N-(3,4,5-trichlorophenyl)-1-hydroxynaphthalene-2--carboxamide]	1.2387	1.0960	1.0561	698 µM (≈ 256 µg/mL)	–	698 µM (≈ 256 µg/mL)	698 µM (≈ 256 µg/mL)	698 µM (≈ 256 µg/mL)	–	–	–	–
O=C(Nc1ccc(Cl)c(Cl)c1)c1ccc2ccccc2c1O [Compound 9]	0.9304	0.9048	0.8909	770 µM (≈ 256 µg/mL)	–	96.3 µM (≈ 32 µg/mL)	385 µM (≈ 128 µg/mL)	770 µM (≈ 256 µg/mL)	–	–	–	–
O=C(Nc1ccc(Cl)cc1)c1ccc2ccccc2c1O [Compound 4]	0.8880	0.7640	0.7501	> 859 µM	–	429 µM (≈ 128 µg/mL)	107 µM (≈ 31.9 µg/mL)	> 859 µM	–	–	–	> 20 µM
